Like-named read-outs stand apart in the source and are kept apart here.
B1: CghSAMPa (full length stable antimicrobial peptide) (peptide)
chain: MCCNRGKNVSIENLHQGFTHIFESTFESTEGVAEYVSHPSHVEYANLFLANLEKVLVIDYKPTTVRV
notes: In the native gel it ran as polymers, 'likely hexamers based on the molecular weight'; also called MaSSAMP; Syd72SSAMP1
B2: CghSAMPa helix 2 (peptide)
peptide: SHVEYANLFLANLEKVLVIDYK
notes: 22-residue fragment of CghSAMPa holding only the second alpha-helix; In the native gel it ran as polymers, likely hexamers; also called MaSSAMP-helix2; SAMP-helix 2

Legend:
[1] = tested on: defense marker genes, including PR2, PAL, and CHI; type: in vivo; conditions: 10 μM spray, Carrizo seedlings
Liberibacter crescens = type: cell-based; conditions: Liberibacter crescens 10^6/mL; for anti-bacterial activity (viability staining, confocal microscopy): 30 μM, 2 hours
E. coli = type: cell-based; conditions: compared to L. crescens; concentrations shown in FIG. 5
B. thuringiensis = type: cell-based; conditions: compared to L. crescens; concentrations shown in FIG. 5
[2] = target: the molecule itself; assay: native PAGE, self-association

Molecule | induction of defense response (PR2, PAL, CHI expression normalized to Ubiquitin) ([1]; 1 day post-treatment) | duration of defense gene induction ([1]; time course up to 7 days post treatment) | anti-bacterial activity (viability staining, confocal microscopy) (Liberibacter crescens) | anti-bacterial activity (viability staining, confocal microscopy) (Liberibacter crescens; listed as helix 2) | anti-bacterial activity compared to full length CghSAMPa (viability staining) (Liberibacter crescens; 5 hours, same concentration or triple dosages of helix 2 vs full length) | tolerance of E. coli to SAMP treatment (E. coli) | tolerance of B. thuringiensis to SAMP treatment (B. thuringiensis) | binding result [2]
SHVEYANLFLANLEKVLVIDYK [CghSAMPa helix 2, polypeptide containing CghSAMPa helix 2] | induced a defense response | maintained for the 7-day time period | plays an important role in anti-bacterial activity | found to be a functional SAMP | retained much of the anti-bacterial activity of full length SAMP | – | – | –
B1 | – | – | – | – | – | more tolerant of SAMP treatment compared to L. crescens | highly tolerant | binds
B2 | – | – | – | – | – | – | – | binds

From patent US20240109941A1 (University of California, published 2024)
